Test results from ChEMBL document CHEMBL4627384, “l-Thyroxin and the Nonclassical Thyroid Hormone TETRAC Are Potent Activators of PPARγ” (J Med Chem, 2020).
Activity calls are given as the source filed them. The calls are words filed in the database; no cut-off is given here.

Assays:
[1] = target: T1, Peroxisome proliferator-activated receptor gamma (Homo sapiens) (UniProt P37231); experiment: Agonist activity at PPARgamma in human HepG2 cells without THRB knockdown assessed as induction of CD36 expression at 30 uM incubated for 8 hrs in by Western blot analysis; type: cell-based
T1 sequence (whole entry): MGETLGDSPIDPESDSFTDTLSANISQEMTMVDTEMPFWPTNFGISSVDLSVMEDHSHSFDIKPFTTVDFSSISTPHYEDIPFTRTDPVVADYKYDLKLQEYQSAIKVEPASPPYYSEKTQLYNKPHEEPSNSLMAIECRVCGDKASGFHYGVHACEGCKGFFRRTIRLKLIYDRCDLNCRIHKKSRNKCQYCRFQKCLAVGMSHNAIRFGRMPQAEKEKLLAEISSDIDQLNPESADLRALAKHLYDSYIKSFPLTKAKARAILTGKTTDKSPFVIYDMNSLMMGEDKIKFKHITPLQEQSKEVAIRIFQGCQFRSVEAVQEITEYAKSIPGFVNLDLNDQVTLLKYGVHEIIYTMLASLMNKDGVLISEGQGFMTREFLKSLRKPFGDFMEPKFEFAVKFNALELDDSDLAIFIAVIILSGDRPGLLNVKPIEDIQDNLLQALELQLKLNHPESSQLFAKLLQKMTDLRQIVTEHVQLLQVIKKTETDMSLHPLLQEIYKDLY

[2] = Drug metabolism in human HepG2 cells assessed as 2-(4-(4-hydroxy-3-iodophenoxy)-3,5-diiodophenyl)acetic acid formation at 10 uM incubated for 24 hrs by LC-MS analysis; type: ADME, cell-based; conditions: hepg2, 24 h
[3] = target: T1, Peroxisome proliferator-activated receptor gamma (Homo sapiens); experiment: Agonist activity at PPARgamma in human HepG2 cells without THRA knockdown assessed as induction of CD36 expression at 1 uM incubated for 8 hrs in by Western blot analysis; type: cell-based
[4] = target: T1, Peroxisome proliferator-activated receptor gamma (Homo sapiens); experiment: Agonist activity at N-terminal GFP-fused PPARgamma LBD (unknown origin) assessed as biotin-labeled SRC-1 recruitment incubated for 2 hrs by HT-FRET assay
[5] = target: T1, Peroxisome proliferator-activated receptor gamma (Homo sapiens); experiment: Agonist activity at N-terminal GFP-fused PPARgamma LBD (unknown origin) assessed as biotin-labeled SRC-1 recruitment incubated for 2 hrs by HT-FRET assay relative to rosiglitazone
Homo sapiens = species on record: Homo sapiens; experiment: Agonist activity at PPARgamma LBD (unknown origin)/GFP-tagged RXRalpha mutant (unknown origin) assessed as biotin-labeled CBP recruitment to […]:RXRalpha mutant fusion protein heterodimer incubated for 2 hrs by HT-FRET assay
[6] = target: RXR alpha/PPAR gamma (Homo sapiens) (UniProt P37231+P19793); experiment: Agonist activity at recombinant human pFA-CMV fused PPARgamma LBD transfected in HEK293T cells/human pFA-CMV fused RXRalpha LBD transfected in HEK293T cells assessed as increase in reporter activation at 0.1 to 3 uM incubated for 14 to 16 hrs using […]:RXRalpha LBD at ratio of 4:1 to 1:1 by dual glo luciferase reporter gene assay relative to rosiglitazone; type: cell-based; conditions: HEK-293T
[7] = target: T2, Peroxisome proliferator-activated receptor gamma (Mus musculus) (UniProt P37238); experiment: Agonist activity at PPARgamma in mouse 3T3L1 adipocytes assessed as induction of adiponectin mRNA expression at 1 uM by qRT-PCR analysis; type: cell-based; conditions: 3T3-L1
T2 sequence (whole entry): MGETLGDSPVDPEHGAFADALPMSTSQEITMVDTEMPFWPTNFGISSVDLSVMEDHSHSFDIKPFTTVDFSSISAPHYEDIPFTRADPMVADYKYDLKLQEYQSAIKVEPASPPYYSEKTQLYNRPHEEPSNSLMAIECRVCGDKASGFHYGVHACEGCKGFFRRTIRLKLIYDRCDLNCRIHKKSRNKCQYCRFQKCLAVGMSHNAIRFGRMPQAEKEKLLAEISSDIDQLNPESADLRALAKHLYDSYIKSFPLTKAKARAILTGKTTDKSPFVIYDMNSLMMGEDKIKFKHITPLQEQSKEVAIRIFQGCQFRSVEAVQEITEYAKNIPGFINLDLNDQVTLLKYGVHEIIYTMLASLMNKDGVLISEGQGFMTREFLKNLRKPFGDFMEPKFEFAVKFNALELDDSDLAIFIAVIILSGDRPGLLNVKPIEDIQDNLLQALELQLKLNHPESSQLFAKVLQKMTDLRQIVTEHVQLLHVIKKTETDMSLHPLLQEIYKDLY

[8] = target: T2, Peroxisome proliferator-activated receptor gamma (Mus musculus); experiment: Agonist activity at PPARgamma in mouse 3T3L1 adipocytes assessed as induction of LPL mRNA expression at 1 uM by qRT-PCR analysis; type: cell-based; conditions: 3T3-L1
[9] = target: T1, Peroxisome proliferator-activated receptor gamma (Homo sapiens); experiment: Agonist activity at PPARgamma in human HepG2 cells with THRB knockdown assessed as induction of CD36 expression at 1 uM incubated for 8 hrs in by Western blot analysis; type: cell-based
[10] = target: T1, Peroxisome proliferator-activated receptor gamma (Homo sapiens); experiment: Agonist activity at recombinant human pFA-CMV fused PPARgamma LBD expressed in HEK293T cells transfected with pFR-luciferase plasmid and pRL-SV40 plasmid at 0.1 uM incubated for 14 to 16 hrs in presence of PPARgamma antagonist GW9662 by dual glo luciferase reporter gene assay; type: cell-based; conditions: HEK-293T
[11] = Drug level in human serum by RIA; type: ADME, cell-free; conditions: read-out: Drug uptake

SMILES | Activity [1] | Drug metabolism [2] | Activity [3] | Activity [4] | Activity [5] | Activity (Homo sapiens) | Activity [6] | Activity [7] | Activity [8] | Activity [9] | Activity [10] | concentration [11]
N[C@@H](Cc1cc(I)c(Oc2cc(I)c(O)c(I)c2)c(I)c1)C(=O)O [LEVOTHYROXINE] | Active | Metabolite_Notdetected | – | – | – | – | – | – | – | – | – | –
O=C(O)Cc1cc(I)c(Oc2cc(I)c(O)c(I)c2)c(I)c1 [TETRAC] | – | – | Active | Active | Active | Active | Active | Active | Active | Active | inactive | 1.6 nM
